Results: patent publication US20030100540A1, “Identification of NSAID-regulated genes” (Vanderbilt University, priority 2001, published 2003)
Entries after “also recorded” stand apart in the source; their conditions may differ.

Columns and labels:
[1] = tested on: angiogenesis; details: cited from earlier work
[2] = tested on: different types of cancer cell lines; details: cited from earlier work
[3] = tested on: human colon carcinoma cells; details: cited from earlier work
[4] = tested on: HCA-7 cells; test: HCA-7 cell growth following treatment; format: cell-based; details: following treatment with NS-398
[5] = tested on: HCA-7 cells; test: Differential gene expression after NS-398 treatment (SSH, differential screening, Northern blotting); format: cell-based
Protocol: Cell culture. The HCA-7 cells, which are derived from a rectal carcinoma, were kindly provided by Dr. Susan Kirkland (ICRF, London, UK). Cells were cultured at 37° C. with 5% CO2 in McCoy's 5A medium containing penicillin, streptomycin, 10% FBS (Life Technologies, Inc., Grand Island, N.Y.). NS-398 and nimesulide (Cayman chemicals, Ann Arbor, Mich.), sulindac sulfide (Merck & Co., Rahway, N.J.) and SC-58125 (G.D. Searle Co., St. Louis, Mo.) were dissolved in DMSO prior to addition to cell culture medium. Experimental controls were treated with 0.1% DMSO.
mRNA isolation. Total cellular RNA was isolated using Tri-Reagent (Molecular Research Center, Inc., Cincinnati, Ohio) and polyadenylated RNA was isolated using a mRNA Purification Kit (Amersham Pharmacia Biotech, Inc., Piscataway, N.J.).
Suppression subtractive hybridization. SSH was performed with the PCR-Select™ cDNA Subtraction Kit (Clontech Laboratories Inc., Palo Alto, Calif.) as described by the manufacturer except for slight modifications of the PCR and hybridization conditions. Starting material consisted of 2 μg of mRNA from NS-398 treated HCA-7 cells and 2 μg of mRNA from control cells. After synthesis of the first and second cDNA strands, the cDNA was digested with Rsa I to obtain shorter, blunt-ended molecules. Then ligation of two different adapters to the cDNA fragments was performed separately. The adapter sequences were as follows: 5′-[…]-3′ (adapter 1-SEQ ID NO: 52) and 5′-[…]-3′ (adapter 2R-SEQ ID NO: 53). For the first round hybridization, the mixture of driver and tester cDNA were denatured at 98° C. for 1.5 min and then maintained at 68° C. for ˜10 h. For the second round hybridization, driver cDNA was denatured at 98° C. for 1.5 min and then added to the mixture of the two previous hybridization and allowed to incubate at 68° C. for ˜18 h.
After two rounds of hybridization, two rounds of PCR were performed to amplify the specific, differentially expressed cDNA fragments. All PCR reactions were performed using a PTC-100 thermal cycler (MJ Research, Inc. Watertown, Mass.). The primer used in first round is 5′-[…]-3′ (primer 1-SEQ ID NO: 54) and the primers used in second round were 5′-[…]-3′ (nested primer 1-SEQ ID NO: 55) and 5′-[…]-3′ (nested primer 2R -SEQ ID NO: 56). Cycling parameters are as follows: for the first round, 27 cycles of 94° C. for 30 s, 64° C. for 30 s and 71° C. for 1.5 min; for the second round, 15 cycles of 94° C. for 30 s, 68° C. for 30 s and 72° C. for 1.5 min.
To evaluate subtractive efficiency, the same amount of subtracted and unsubtracted secondary PCR products were applied as templates, and GAPDH primers were used to perform PCR. The PCR products were examined in a 2.0% agarose/EtBr gel to detect the abundance of GAPDH. After evaluation of the subtractive efficiency, the subtracted PCR products were cloned directly into the pCR2.1-TOPO vector (InVitrogen, Carlsbad, Calif.). Plates were incubated at 37° C. until small clones were visible and the blue/white staining could be clearly distinguished.
Differential screening. Differential screening was performed by using the PCR-Select™ Differential Screening Kit (Clontech) according to the users manual. After picking the recombinant clones from the subtractive library and identifying them by restriction digestion, the insert was PCR amplified in 20 μl volume reactions using nested PCR primer 1 and 2R. After amplification, 5 μl of the PCR product was denatured with 5 μl of 0.6 N NaOH and then 1.5 μl of each mixture was transferred to a nylon membrane. Each cDNA fragment was arrayed in duplicate in each blot and two identical blots were prepared for hybridization with different probes. The total secondary PCR amplified products from the forward and reverse SSH were used as probes. After washing, the membranes were exposed overnight to Kodak BioMax MR x-ray film (Eastman Kodak Company, Rochester, N.Y.) with and intensifying screen at −70° C.
Northern blotting. […]

[6] = tested on: AOM induced colon carcinogenesis; details: AOM induced colon carcinogenesis rat model; cited from earlier work
[7] = tested on: NNK-induced lung cancer; details: NNK-induced lung cancer model; cited from earlier work
[8] = tested on: prostate carcinoma cells; details: cited from earlier work
[9] = cited from earlier work
[10] = cited from earlier work; remark: listed apart in the source
[11] = 100 μM NS-398 for 4 days, down = decreased levels following treatment, -fold decrease
[12] = 100 μM NS-398 for 4 days, up = increased levels following treatment, -fold increase

Question: Which Anti-angiogenic effects [1] does the source give for `CS(=O)(=O)Nc1ccc([N+](=O)[O-])cc1OC1CCCCC1` [NS-398] here?
Answer: Its Anti-angiogenic effects is “anti-angiogenic effects”.

Question: And the “Effect on tumor growth” value [2]?
Answer: Its value is “suppress tumor growth”.

Question: And the Induction of apoptosis [3]?
Answer: Its Induction of apoptosis is “induce apoptosis”.

Question: And the “Inhibition of HCA-7 cell growth” value [4]?
Answer: The value was “significant inhibition”.

Question: And the “Regulation by NS-398: Cyclin K (AF060515)” value [5, 11]?
Answer: Its value is “down (2.1) fold”.

Question: And the “Regulation by NS-398: KIAA0101 (D14657)” value [5, 11]?
Answer: The value was “down (2.7) fold”.

Question: And the “Regulation by NS-398: Proliferation associated p100 protein (AF098158)” value [5, 11]?
Answer: The value was “down (2.2) fold”.

Question: And the “Regulation by NS-398: Dynamin 2 (NM_004945)” value [5, 12]?
Answer: The value was “up (3.1) fold”.

Question: And the “Regulation by NS-398: ENH, LIM protein (similar to rat protein kinase C-binding enigma) (NM_006457)” value [5, 12]?
Answer: The value was “up (3.0) fold”.

Question: What about the “Regulation by NS-398: FAT tumor suppressor (Drosophila) homolog (NM_005245)” value [5, 12] of the same compound?
Answer: Its value is “up (4.4) fold”.

Question: What about the “Regulation by NS-398: LIP.1 (LAR-interacting protein 1b) (U22816)” value [5, 12] of the same compound?
Answer: The value was “up (3.4) fold”.

Question: What about the “Regulation by NS-398: PCDH7 (BH-Pcdh) (AB06757)” value [5, 12] of the same compound?
Answer: The value was “up (26.0) fold”.

Question: And the “Regulation by NS-398: Pdcd4 (Programmed cell death) (NM_011050)” value [5, 12]?
Answer: Its value is “up (1.5) fold”.

Question: What about the “Regulation of named genes by NS-398, stated in words” value ([5]; gene named in the value) of the same compound?
Answer: The value was “genes that were down-regulated by NS-398, one was designated as NRG-1; also recorded: Cyclin K was found to be down-regulated; also recorded: Pdcd4, Dynamin 2 and LIP.1 are all up-regulated; also recorded: ENH is a LIM protein whose levels are increased”.

Question: And the Chemopreventive effects [6]?
Answer: The Chemopreventive effects was “chemopreventive effects”.

Question: And the Chemopreventive effects [7]?
Answer: The Chemopreventive effects was “chemopreventive effects”.

Question: And the Induction of apoptosis [8]?
Answer: Its Induction of apoptosis is “induce apoptosis”.

Question: With `CC1=C(CC(=O)O)c2cc(F)ccc2/C1=C\c1ccc([S+](C)[O-])cc1` (stereo not drawn) [sulindac, (Z)-5-Fluoro-2-methyl-1-((4(methylsulfinyl)phenyl)methylene) 1H-indene-3-acetic acid] as the compound, how does the “Drug absorbed after oral administration” value [9] read?
Answer: Its value is “about 90%”.

Question: And the “Time to peak plasma levels” value ([9]; fasting patients, oral)?
Answer: Its value is “about 2 hours”.

Question: What about the “Mild gastrointestinal effects, share of patients” value ([10]; abdominal pain and nausea most frequent) of the same compound?
Answer: Its value is ~20%.

Question: What about the “Skin rash and pruritus, share of patients” value ([10]; human, in vivo) of the same compound?
Answer: Its value is 5%.
